Patent US7393869B2, “Methods of using thiazolidine derivatives to treat cancer or inflammation” (QLT Inc., priority 2002, dated 2008)

Legend:
PTPN12 = molecular target: T1, PTPN12 (Homo sapiens, UniProt Q05209); assay: In vitro phosphatase assay (malachite green, phosphate release from ppC SRC 60 peptide); type: biochemical; conditions: read-out: Inhibition of PTPN12 IC50
T1 construct: The truncated version was used as it was far easier to handle and gave parallel results to the full length protein; made in house; host or cells: bacterial strain ER2566
T1 sequence (Q05209 28-293 limits assumed): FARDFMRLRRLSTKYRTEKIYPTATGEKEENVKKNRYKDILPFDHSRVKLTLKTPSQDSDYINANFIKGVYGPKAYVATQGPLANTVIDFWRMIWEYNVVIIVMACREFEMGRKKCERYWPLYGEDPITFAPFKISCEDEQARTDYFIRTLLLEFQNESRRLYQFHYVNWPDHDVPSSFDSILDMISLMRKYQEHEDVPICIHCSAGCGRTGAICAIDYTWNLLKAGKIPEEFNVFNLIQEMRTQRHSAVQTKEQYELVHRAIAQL
Description: Expression of human truncated PTPN12 (PTP-PEST-N) as a fusion protein required that the cDNA be ligated into the polyclonal site situated in frame and upstream of the intein gene of the IMPACT™ expression vector pTWIN-II. The truncated version was used as it was far easier to handle and gave parallel results to the full length protein in comparison testing. For the purpose of simplicity, PTP-PEST-N will be used interchangeably with PTPN12 in these Examples.
Active PTPN12 enzyme is expressed from the IMPACT™ vector system in the bacterial strain ER2566. Recombinant PTPN12 protein is purified from bacterial cells using affinity chromatography on chitin-agarose beads followed by a chemical process whereby PTPN12 is released from its affinity tag. A complete quantitative and qualitative analysis of the protein is monitored using Coomassie-Blue staining of SDS-PAGE separated preparations and by PTPN12-specific western blotting. […]
(§1) The enzyme (phosphatase) activity was determined in a reaction that measured phosphate relase from tyrosine phospho-specific peptides using a method first described by Harder et al., Biochem. J. (1994), Vol. 298, pp. 395-401. […]
(§2) The assay plate was incubated at room temperature (21° C.) for 15 minutes. […] The plate was “read” on Bio-tek Instruments EL312e microplate Bio-Kinetics™ Reader at 590 nm and the data collected as per instrument manual.

PTPN2 = molecular target: T2, PTPN2 (Homo sapiens, UniProt P17706); assay: as above; type: biochemical; conditions: read-out: Inhibition of PTPN2 IC50
T2 construct: made in house; host or cells: bacterial expression system (IMPACT, New England BioLabs)
T2 sequence (P17706 1-415): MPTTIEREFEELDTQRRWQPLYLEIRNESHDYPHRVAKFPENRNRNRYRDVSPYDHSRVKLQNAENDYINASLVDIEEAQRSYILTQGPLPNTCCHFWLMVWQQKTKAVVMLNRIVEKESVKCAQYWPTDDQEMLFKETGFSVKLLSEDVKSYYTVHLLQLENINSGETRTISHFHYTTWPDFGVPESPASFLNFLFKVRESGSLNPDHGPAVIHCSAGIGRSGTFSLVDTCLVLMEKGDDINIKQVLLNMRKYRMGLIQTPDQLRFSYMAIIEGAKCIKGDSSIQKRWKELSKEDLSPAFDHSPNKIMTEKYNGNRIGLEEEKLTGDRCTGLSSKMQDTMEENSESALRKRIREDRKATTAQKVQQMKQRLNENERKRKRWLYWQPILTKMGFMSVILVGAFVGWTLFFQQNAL
Description: PTPN2 was cloned from a human placental cDNA library in the IMPACT™ (New England BioLabs) bacterial expression system. The technology was first described by Chong et al., Gene (1997), Vol. 192, pp. 271-281. The IMPACT™ Protein Purification System was purchased commercially from New England BioLabs. The resulting product was used in the development of a protein phosphatase assay for high-throughput screening (HTS) of target molecules and in other assays described herein (see Example 2).
This activity was considered to be in the high range as compared to other recombinant protein tyrosine phosphatases assayed. […]
as §1, §2
(§3) The blank and negative controls were read, and blanks were subtracted from the average of negative control values and sample values, and the % inhibition was expressed by the following formula: % Inhibition=100−[corrected sample reading/corrected Negative Control reading*100].

PTPN1 = molecular target: T3, PTPN1 (Homo sapiens, UniProt P18031); assay: as above; type: biochemical; conditions: read-out: Inhibition of PTPN1 IC50
T3 sequence (P18031 1-435): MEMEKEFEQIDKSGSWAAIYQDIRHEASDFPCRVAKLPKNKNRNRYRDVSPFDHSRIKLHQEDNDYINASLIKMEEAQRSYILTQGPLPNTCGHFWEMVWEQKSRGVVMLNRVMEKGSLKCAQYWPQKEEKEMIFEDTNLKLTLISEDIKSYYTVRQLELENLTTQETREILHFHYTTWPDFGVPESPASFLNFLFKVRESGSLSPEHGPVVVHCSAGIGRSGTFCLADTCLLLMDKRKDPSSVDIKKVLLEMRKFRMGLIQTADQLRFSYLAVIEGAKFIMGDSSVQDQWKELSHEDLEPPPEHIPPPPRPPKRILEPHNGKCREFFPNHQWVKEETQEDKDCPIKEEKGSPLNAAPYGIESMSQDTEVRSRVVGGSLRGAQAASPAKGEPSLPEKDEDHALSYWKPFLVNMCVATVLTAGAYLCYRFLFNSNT
Procedure: Compounds of formula (I) and formula (Ia) were tested in the following assay for their ability to inhibit the activity of the desired phosphatase.
The enzyme (phosphatase) activity was determined in a reaction that measured phosphate relase from tyrosine phospho-specific peptides using a method first described by Harder et al., Biochem. J. (1994), Vol. 298, pp. 395-401. This is a non-radioactive method for measuring free phosphate by the malachite green method first described by Van Veldhoven and Mannaerts, Anal Biochem. (1987), Vol. 161, pp. 45-48. 10× assay buffer (250 mM Tris:100 mM, β-mercaptoethanol, 50 mM EDTA; pH 7.2) was diluted to 5× concentration (conc.) with distilled H2O (dH2O). Then 71.4 μM of substrate working stock solution was prepared in dH2O. […]
as §2, §3

[1] = tested on: prostate cancer cell line PC3; assay: Cell migration in a Boyden chamber; type: cell-based; conditions: cell line not given
Description: A range of cell lines are used in this assay, particularly the prostate cancer cell line PC3 and PTPN12 mouse embryonic fibroblasts (MEFs). The role of PTPN12 in migration was established based on the observations of PTPN12 negative MEFs. Cell adhesion and migration are dynamic biological activities involving the assembly and disassembly of a large number of extracellular and intracellular molecules, for example, actin, which are regulated in turn by protein phosphorylation. […] Migration is reduced in PTPN12 knock-out MEFs. By extension, a PTPN12 inhibitor should reduce cell migration in a Boyden chamber. Therefore, as a readout for PTPN12 activity, the following assay is designed to analyze cell migration in Boyden chambers. […]
For tumour cell lines, stock cells (ie. PC3 cells) are grown to 50-70% confluency in T175 flasks. […] Fluorescence of migrated cells is read in a Fluoroskan Ascent FL™ (or equivalent) with bottom reading at excitation/emission wavelength of 485/538 nm. Only those cells that have migrated through the pores of the FluoroBlok™ membrane will be read. […]
Data is expressed as fluorescence unit (FU) from the sum of middle 25 areas per 24-well or as percentage of migration inhibition by following formula: % of invasion inhibition=100−FU of compound treated cell invasion/FU of DMSO treated cell invasion times 100. […]

H460 Cells = assay: Cell proliferation (3H-thymidine incorporation); type: cell-based; conditions: Homo sapiens, NCI-H460
Description: (§4) This procedure (Jelinkova, R. B. et al., “Antiproliferative effect of a lectin- and anti-Thy-1.2 antibody-targeted HPMA copolymer-bound doxorubicin on primary and metastatic human colorectal carcinoma and on human colorectal carcinoma transfected with the mouse Thy-1.2 gene”, Bioconjug. Chem. (2000, September-October), Vol. 11, No. 5, pp. 664-73) is used to assess the effect compounds have on various cell lines with respect to proliferation. The rate of anchorage-independent growth of various tumor cells is quantified by measuring the amount of free isotopic thymidine that has been incorporated into the cells over a period of time. The effect of any compound to inhibit the proliferation of various tumor cells could be used as an indication of its ability to prevent disease progression in cancer.
(§5) Cultured tumour cells are harvested cells as per normal procedures: i.e. trypsinize, centrifuge and count cells. A volume of 90 μL is used to seed 5,000 cells/well in a 96 well plate. Cells are incubated for 24 hours at 37° C. under 5% CO2. After incubation, cells should be 80-90% confluent.
(§6) ^3H-thymidine (Amersham) is diluted in cell culture media to a concentration of 100 μCi/mL. The test compound is diluted in the thymidine broth to 10× the final desired concentration.
(§7) Then 10 μL of diluted compound is added to the 90 μL of cells already present in the 96-well plates. Six replicates wells are done per treatment in columns 2 to 11. Plates were mixed by rocking.
(§8) A known cytotoxic compound such as staurosporine is used in relatively high concentrations as a positive control in column 1. Diluted DMSO is used as a negative control in column 12. The plate is incubated for exactly 24 hours at 37° C.
(§9) After incubation, plates are observed under the microscope for obvious cell death, abnormal cell shape, crystal formation of the compound, etc. Then 25 μL volume of cold 50% TCA is added slowly to the 100 μL volume already in each well, and incubated for 1-2 hours at 4° C. The plates are then washed 5× in tap water and allowed to dry completely (usually overnight) at ambient temperature. Finally, 100 μL of scintillation fluid is added to each well and the plates are counted in a Wallac 1450 Microbeta™ counter according to user manual instructions.
(§10) The amount of inhibition is determined by the following formula: % inhibition=100−[(AVG treatment−AVG positive control)/[…]]

PC3 Cells = assay: Cell proliferation (3H-thymidine incorporation); type: cell-based; conditions: Homo sapiens, PC-3
Description: as §4, §5, §6, §7, §8, §9, §10

IC50 (PTPN12) [µM] | IC50 (PTPN2) [µM] | IC50 (PTPN1) [µM] | Compound | inhibition at 25 µM [1] [%] | inhibition at 50 µM (H460 Cells) [%] | inhibition at 50 µM (PC3 Cells) [%]
1.5 | 1.6 | 3 | Cc1ccc(C=C2SC(=S)N(CCC(=O)Nc3ccc(S(N)(=O)=O)cc3)C2=O)cc1 [3-[5-(4-methylbenzylidene)-4-oxo-2-thioxothiazolidin-3-yl]-N-(4-sulfamoylphenyl)-propionamide] | 55 | 45 | 35
1.1 | 0.95 | 1.5 | Cc1ccc(C=C2SC(=S)N(CCC(=O)Nc3ccc(S(=O)(=O)Nc4nccs4)cc3)C2=O)cc1 [3-[5-(4-methylbenzylidene)-4-oxo-2-thioxothiazolidin-3-yl]-N-[4-(thiazol-2-ylsulfamoyl)-phenyl]-propionamide] | 87 | 43 | 47
